Measured values taken from patent US11884676B2, “Substituted pyrimido[1,2-b]pyridazines as positive allosteric modulators of the muscarinic acetylcholine receptor M4” (Vanderbilt University, priority 2020, dated 2024).

How the values were obtained:
[1] = cited from earlier work
[2] = Alzheimer's disease patients; Bodick et al. 1997; cited from earlier work
[3] = human, in vivo; cited from earlier work
Human M4 = target: T1, Human M4 (Homo sapiens, UniProt P08173); assay: mAChR M4 cell-based functional assay (calcium flux, PAM mode); conditions: hM4-Gqi5 CHO-K1 cells; for Emax at 30 µM: CHO-K1, % ACh maximum at 30 μM; for EC50: concentration-dependent increase in the EC20 acetylcholine response
T1 construct: expressed in transfected cells
T1 sequence (P08173 1-479): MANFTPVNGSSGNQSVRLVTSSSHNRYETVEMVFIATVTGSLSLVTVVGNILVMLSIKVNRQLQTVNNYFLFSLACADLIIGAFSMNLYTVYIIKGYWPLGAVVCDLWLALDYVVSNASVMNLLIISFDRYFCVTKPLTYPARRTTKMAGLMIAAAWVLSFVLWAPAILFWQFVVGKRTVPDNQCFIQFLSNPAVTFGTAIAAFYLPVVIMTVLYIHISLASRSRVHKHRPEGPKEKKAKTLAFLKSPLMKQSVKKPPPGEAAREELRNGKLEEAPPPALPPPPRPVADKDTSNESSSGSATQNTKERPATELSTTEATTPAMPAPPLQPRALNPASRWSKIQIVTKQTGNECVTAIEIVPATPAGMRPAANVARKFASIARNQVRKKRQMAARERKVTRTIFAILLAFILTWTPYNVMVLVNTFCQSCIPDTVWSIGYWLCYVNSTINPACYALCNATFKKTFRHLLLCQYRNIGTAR
Method in brief: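 CHO-K1 cells stably co-expressing human M4 and chimeric Gqi5, Fluo-4 loaded; compound added first (11-point, 1:3 CRC), then EC20 acetylcholine at 144 s and EC80 at 230 s. PAM activity read on FDSS as concentration-dependent increase of EC20 ACh calcium response; EC50 and Emax from four-parameter logistic fit.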

Row | SMILES | Emax at 30 µM (Human M4) | EC50 (Human M4) | further results
1 | CCCCCCOc1nsnc1C1=CCCN(C)C1 [xanomeline] |  |  | activity in animal models with similar profiles to known antipsychotic drugs ([1]; Bymaster et al., Shannon et al.): active; catalepsy ([1]; animal models): without causing catalepsy; psychotic behavioral symptoms such as delusions, suspiciousness, vocal outbursts, and hallucinations [2]: reduce psychotic behavioral symptoms
2 | Nc1c2c(nc3ccccc13)CCCC2 [tacrine] |  |  | elevated liver transaminases observed in patients [3]: about 30 % of patients
3 | Cc1ccc(OC2CCN(c3nn4c(=O)ccnc4cc3C)CC2)cn1 [Compound 24, 8-methyl-7-(4-((6-methylpyridin-3-yl)oxy)piperidin-1-yl)-4H-pyrimido[1,2-b]pyridazin-4-one] | 73% | 782 nM | 
4 | Cc1ccc(OC2CCN(c3nn4c(=O)cc(C)nc4cc3C)CC2)cn1 [Compound 52, 2,8-dimethyl-7-(4-((6-methylpyridin-3-yl)oxy)piperidin-1-yl)-4H-pyrimido[1,2-b]pyridazin-4-one] | 84% | 168 nM | 
5 | [2H]C1(Oc2ccc3c(c2)OC([2H])([2H])C([2H])([2H])O3)CCN(c2nn3c(=O)ccnc3c(COC)c2C)CC1 [Compound 103, 7-(4-((2,3-dihydrobenzo[b][1,4]dioxin-6-yl-2,2,3,3-d4)oxy)piperidin-1-yl-4-d)-9-(methoxymethyl)-8-methyl-4H-pyrimido[1,2-b]pyridazin-4-one] | 78% | 455 nM | 
6 | Cc1c(N2CCC(Oc3ccc(F)cc3)CC2)nn2c(=O)ccnc2c1C [Compound 83, 7-(4-(4-fluorophenoxy)piperidin-1-yl)-8,9-dimethyl-4H-pyrimido[1,2-b]pyridazin-4-one] | 89% | 186 nM | 
7 | [2H]C1([2H])Oc2ccc(OC3CCN(c4nn5c(=O)cc(C(C)C)nc5c(C)c4C)CC3)cc2OC1([2H])[2H] [Compound 99, 7-(4-((2,3-dihydrobenzo[b][1,4]dioxin-6-yl-2,2,3,3-d4)oxy)piperidin-1-yl)-2-isopropyl-8,9-dimethyl-4H-pyrimido[1,2-b]pyridazin-4-one] | 90% | 131 nM | 

Continued, in another order:

Row | Emax at 30 µM (Human M4) | EC50 (Human M4) | SMILES | further results
8 | 81% | 22 nM | [2H]C1(Oc2ccc3c(c2)OC([2H])([2H])C([2H])([2H])O3)CCN(c2nn3c(=O)c(F)c(C)nc3cc2C)CC1 [Compound 46, 7-(4-((2,3-dihydrobenzo[b][1,4]dioxin-6-yl-2,2,3,3-d4)oxy)piperidin-1-yl-4-d)-3-fluoro-2,8-dimethyl-4H-pyrimido[1,2-b]pyridazin-4-one] | 
9 | 91% | 46 nM | [2H]C1(Oc2ccc3c(c2)OCCO3)CCN(c2nn3c(=O)ccnc3cc2C)CC1 [Compound 48, 7-(4-((2,3-dihydrobenzo[b][1,4]dioxin-6-yl)oxy)piperidin-1-yl-4-d)-8-methyl-4H-pyrimido[1,2-b]pyridazin-4-one] | 
10 | 120% | 81 nM | [2H]C1([2H])Oc2ccc(O[C@H]3CCN(c4nn5c(=O)ccnc5cc4C)[C@H](C)C3)cc2OC1([2H])[2H] [Compound 129, 7-((2R,4S)-4-((2,3-Dihydrobenzo[b][1,4]dioxin-6-yl-2,2,3,3-d4)oxy)-2-methylpiperidin-1-yl)-8-methyl-4H-pyrimido[1,2-b]pyridazin-4-one] | 
11 | 97% | 19 nM | [2H]C1(Oc2ccc3c(c2)OC([2H])([2H])C([2H])([2H])O3)CCN(c2nn3c(=O)cc(COC)nc3cc2C)CC1 [Compound 109, 7-(4-((2,3-dihydrobenzo[b][1,4]dioxin-6-yl-2,2,3,3-d4)oxy)piperidin-1-yl-4-d)-2-(methoxymethyl)-8-methyl-4H-pyrimido[1,2-b]pyridazin-4-one] | 
